Earlier results on 2 compounds are cited in patent US10208167B2, “Cyclodextrins with one or more poly(ethylene glycol) units, inclusion compounds and drug delivery vehicles including the same, and methods of making and using the same” (The Board of Trustees of the California State University, priority 2015, dated 2019).

Data set [1] has as its system human salivary and pancreatic amylases.
Data set [2] deals with intestinal microflora.

Regarding `OC[C@H]1O[C@@H]2O[C@H]3[C@H](O)[C@@H](O)[C@@H](O[C@H]4[C@H](O)[C@@H](O)[C@@H](O[C@H]5[C@H](O)[C@@H](O)[C@@H](O[C@H]6[C@H](O)[C@@H](O)[C@@H](O[C@H]7[C@H](O)[C@@H](O)[C@@H](O[C@H]1[C@H](O)[C@H]2O)O[C@@H]7CO)O[C@@H]6CO)O[C@@H]5CO)O[C@@H]4CO)O[C@@H]3CO` [α-CD, α-cyclodextrin], the “hydrolysis by human salivary and pancreatic amylases” value in data set [1] is recorded as “not hydrolyzed”. In addition, the “fermentation in the intestinal microflora” value in data set [2] is “can be fermented”.

Turning to `OC[C@H]1O[C@@H]2O[C@H]3[C@H](O)[C@@H](O)[C@@H](O[C@H]4[C@H](O)[C@@H](O)[C@@H](O[C@H]5[C@H](O)[C@@H](O)[C@@H](O[C@H]6[C@H](O)[C@@H](O)[C@@H](O[C@H]7[C@H](O)[C@@H](O)[C@@H](O[C@H]8[C@H](O)[C@@H](O)[C@@H](O[C@H]9[C@H](O)[C@@H](O)[C@@H](O[C@H]1[C@H](O)[C@H]2O)O[C@@H]9CO)O[C@@H]8CO)O[C@@H]7CO)O[C@@H]6CO)O[C@@H]5CO)O[C@@H]4CO)O[C@@H]3CO` [γ-CD, γ-cyclodextrin], in data set [1], the “hydrolysis by human salivary and pancreatic amylases” value was “not hydrolyzed”.
